Read-outs that look alike come from different tables or passages of the source.
How the values were obtained:
[1] = Bioavailability test: blood drug concentration after oral administration of suspensions to rats; type: in vivo; settings: rat, suspension in distilled water, male rats fasted for 12 hours
Protocol: In order to investigate the bioavailability of the powder according to the present invention, cilostazol powder prepared in Example 6 and unprocessed cilostazole as a control group (average particle size: 3 to 5 μm, Dongwoo Co., Ltd.) were suspended in distilled water, respectively. The suspensions having equivalent amounts of cilostazole were each orally administered to three male rats fasted for 12 hours. Blood samples were taken from the ophthalmic vein of the rats immediately after the administration, and 0.5, 1, 2, 4 and 7 hours after the administration to determined the blood drug concentration changes with time. Also the maximum blood concentration (Cmax, μg/ml) and the area under the blood drug concentration-time curve (AUC, μg*hr/ml) were calculated, and the results are shown in Table 8.

[2] = Particle size of cilostazol (lactose/SLS ratio) after redispersion of slurry or dried powder in distilled water, laser scattering particle size analyzer; type: physicochemical
Protocol: 0.45 g of cilostazol (Dongwoo Co., Ltd.) and 0.15 g of hydroxypropyl cellulose were added to 5.1 ml of the saturated aqueous solution of lactose. […] The slurry mixture thus obtained was high-pressure filtered (pressure: 640 mmHg) using a sound pressure and freeze dried for 1 day to obtain powders.

[3] = Particle size of active ingredient (cilostazol, fenofibrate, itraconazole) powders redispersed in distilled water, laser scattering particle size analyzer; type: physicochemical; settings: powder redispersed in aqueous solution, surface stabilizer HPC, dispersion agent SUCROSE
Protocol: 1.2 g of each of the active ingredient, 0.2 g of hydroxypropyl cellulose and 1.2 g of sucrose were added to 6.1 g of distilled water containing a saturated solution of sucrose, an appropriate amount of zirconia bead having the average particle size of 1 mm were added thereto, and the mixture was roll ground at a rate of 108 rpm for 5 days. The slurry mixture thus obtained was screened to remove the beads, and the residue was high-pressure filtered (pressure: 640 mmHg) using the sound pressure, followed by vacuum drying to obtain powders.

[4] = Particle size of cilostazol (lactose/SLS ratio) after redispersion of slurry or dried powder in distilled water, laser scattering particle size analyzer; type: physicochemical; settings: Lactose 225 g, SLS 225 g
[5] = Protocol: 0.15 g of naproxen (TCI Chem) having an average particle size of 3 to 10 μm, 0.15 g of lactose and 0.03 g of hydroxypropy cellulose (HPC) were added to 3.4 ml of a saturated aqueous solution of lactose, and the mixture was wet ground using an oscillating mill at the room temperature for 30 minutes. The slurry mixture thus obtained was centrifuged at 4° C., 15,000 rpm for 30 minutes, and the residue in the bottom layer was vacuum dried for 24 hours to obtain a powder.
In the above process, the averaged particle size of naproxen particles was measured for 1) a test solution obtained by redispering 0.02 ml of the slurry mixture obtained after wet grinding in 10 ml of distilled water, and 2) an another test solution obtained by redispersing 0.01 g of the dried powder in 8 ml of distilled water, by using a laser scattering particle size analyzer (LA-910, Horiba). The redispersion was conducted by shaking the mixture with a hand.
Additional powders were prepared by repeating the above-mentioned procedure except for using sucrose, mannitol, trehalose, sorbitol and xylitol, respectively, instead of lactose, and naproxen particle sizes were measured by the same procedure.

[6] = Particle size of tacrolimus in redispersed powder with and without ultrasonic irradiation, laser scattering particle size analyzer; type: physicochemical; settings: lactose
Protocol: 0.01 g of each of the powders thus obtained was redispersed using an ultrasonic irradiation (frequency: 39 kHz). The particle of the tacrolimus was measured by using a laser scattering particle size analyzer (LA0910, Horiba) for each of the test solution with and without the ultrasonic irradiation, and the results are shown in Table 4.

[7] = drying powder redispersed, Lactose 90 g, SLS 360 g
[8] = drying powder redispersed, Lactose 360 g, SLS 90 g
[9] = slurry mixture redispersed after wet grinding, Lactose 90 g, SLS 360 g
[10] = slurry mixture redispersed after wet grinding, Lactose 225 g, SLS 225 g
[11] = slurry mixture redispersed after wet grinding, Lactose 360 g, SLS 90 g
[12] = HPC, amount of lactose 20% by weight of active ingredient
[13] = HPC, amount of lactose 60% by weight of active ingredient
[14] = HPC, amount of lactose 100% by weight of active ingredient
[15] = HPC, amount of lactose 140% by weight of active ingredient
[16] = HPC, amount of lactose 180% by weight of active ingredient
[17] = dispersion agent Lactose, surface stabilizer PVP 10,000
[18] = dispersion agent Lactose, surface stabilizer PVP 29,000
[19] = dispersion agent Lactose, surface stabilizer PVP 55,000
[20] = dispersion agent Lactose, surface stabilizer PVP 130,000
[21] = dried powder redispersed in distilled water, surface stabilizer HPC, dispersion agent Lactose
[22] = dried powder redispersed, HPC, dispersion agent Mannitol
[23] = dried powder redispersed, HPC, dispersion agent Sorbitol
[24] = dried powder redispersed, HPC, dispersion agent Sucrose
[25] = dried powder redispersed, HPC, dispersion agent Trehalose
[26] = dried powder redispersed, HPC, dispersion agent Xylitol

O=C1CCc2cc(OCCCCc3nnnn3C3CCCCC3)ccc2N1 [Cilostazol raw material, cilostazol]
Cmax ([1]; read-out: Cmax (maximum blood concentration)): 150 ± 80 ng/mL | AUC ([1]; samples to 7 hours, read-out: AUC (area under the blood drug concentration-time curve)): 580 ± 90 ng·h/mL

O=C1CCc2cc(OCCCCc3nnnn3C3CCCCC3)ccc2N1 [Cilostazol, cilostazol]
Average particle size [2, 7]: 350 nm | Particle size range D10 [2, 7]: 230 nm | Particle size range D50 [2, 7]: 340 nm | Particle size range D90 [2, 7]: 390 nm | Average particle size ([2]; drying powder redispersed, Lactose 225 g, SLS 225 g): 360 nm | Average particle size [2, 8]: 200 nm | Particle size range D10 [2, 8]: 150 nm | Particle size range D50 [2, 8]: 200 nm | Particle size range D90 [2, 8]: 270 nm | Average particle size [2, 9]: 340 nm | Particle size range D10 [2, 9]: 230 nm | Particle size range D50 [2, 9]: 340 nm | Particle size range D90 [2, 9]: 470 nm | Average particle size [2, 10]: 340 nm | Particle size range D10 [2, 10]: 230 nm | Particle size range D90 [2, 10]: 470 nm | Average particle size [2, 11]: 190 nm | Particle size range D10 [2, 11]: 140 nm | Particle size range D50 [2, 11]: 180 nm | Particle size range D90 [2, 11]: 250 nm | Average particle size [3]: 170 nm | Range of particle size ([3]; in nm): 120~228 | Particle size range D10 ([4]; drying powder redispersed): 240 nm | Particle size range D50 ([4]; drying powder redispersed): 350 nm | Particle size range D90 ([4]; drying powder redispersed): 490 nm | Particle size range D50 ([4]; slurry mixture redispersed after wet grinding): 330 nm

COc1ccc2cc([C@H](C)C(=O)O)ccc2c1 [Naproxen, naproxen]
Average particle size [5, 12]: 3,025 nm | Particle Size (D10~D90) [5, 12]: 154~4,292 nm | Average particle size [5, 13]: 500 nm | Particle Size (D10~D90) [5, 13]: 339~629 nm | Average particle size [5, 14]: 164 nm | Particle Size (D10~D90) [5, 14]: 40~260 nm | Average particle size [5, 15]: 391 nm | Particle Size (D10~D90) [5, 15]: 109~316 nm | Average particle size [5, 16]: 208 nm | Particle Size (D10~D90) [5, 16]: 108~310 nm | Average particle size [5, 17]: 16,800 nm | Particle Size (D10~D90) [5, 17]: 868.3~507.1 nm | Average particle size [5, 18]: 156.9 nm | Particle Size (D10~D90) [5, 18]: 95.9~208.7 nm | Average particle size [5, 19]: 192.4 nm | Particle Size (D10~D90) [5, 19]: 120.8~250.3 nm | Average particle size [5, 20]: 275.8 nm | Particle Size (D10~D90) [5, 20]: 150.6~417.5 nm | Average particle size [5, 21]: 164.1 nm | Particle Size (D10~D90) [5, 21]: 40.3~259.6 nm | Average particle size ([5]; dried powder redispersed in distilled water, surface stabilizer HPC, dispersion agent Lactose, listed as naproxen): about 164 nm | Average particle size [5, 22]: 450 nm | Particle Size (D10~D90) [5, 22]: 319.8~564.6 nm | Average particle size [5, 23]: 413.6 nm | Particle Size (D10~D90) [5, 23]: 280.4~532.7 nm | Average particle size [5, 24]: 297.1 nm | Particle Size (D10~D90) [5, 24]: 192.9~393.9 nm | Average particle size [5, 25]: 241.6 nm | Particle Size (D10~D90) [5, 25]: 162.8~312.5 nm | Average particle size [5, 26]: 637.9 nm | Particle Size (D10~D90) [5, 26]: 291.3~675.9 nm | average particle size of naproxen particles ([5]; slurry mixture after wet grinding redispersed in distilled water, HPC, lactose): about 133 nm

C=CC[C@@H]1/C=C(\C)C[C@H](C)C[C@H](OC)[C@H]2O[C@@](O)(C(=O)C(=O)N3CCCC[C@H]3C(=O)O[C@H](/C(C)=C/[C@@H]3CC[C@@H](O)[C@H](OC)C3)[C@H](C)[C@@H](O)CC1=O)[C@H](C)C[C@@H]2OC [tacrolimus]
Particle size according to the ultrasonic irradiation time ([6]; surface stabilizer Hydroxyproply cellulose, 0 minute ultrasonic irradiation): 4,980 nm | Particle size according to the ultrasonic irradiation time ([6]; surface stabilizer Hydroxyproply cellulose, 1 minute ultrasonic irradiation (39 kHz)): 220 nm | Particle size according to the ultrasonic irradiation time ([6]; surface stabilizer Poloxamer 407, 0 minute ultrasonic irradiation): 510 nm | Particle size according to the ultrasonic irradiation time ([6]; surface stabilizer Poloxamer 407, 1 minute ultrasonic irradiation (39 kHz)): 420 nm | Particle size according to the ultrasonic irradiation time ([6]; surface stabilizer Polyvinylpyrrolidone, 0 minute ultrasonic irradiation): 1,561 nm | Particle size according to the ultrasonic irradiation time ([6]; surface stabilizer Polyvinylpyrrolidone, 1 minute ultrasonic irradiation (39 kHz)): 610 nm

— patent US20100003332A1, “Process For Preparing Powder Comprising Nanoparticles of Sparingly Soluble Drug” (Amorepacific Corporation, priority 2006, published 2010)
